pIC50: −log10 of the molar value. Where a SMILES comes first, the peptide text is derived from it. Bridges are numbered along the chain shown (N, C = ends). [ ]: non-standard residue; d: D form. ξ: configuration not given here. Trp(1-CH2COOH) = N[C@@H](Cc1cn(CC(=O)O)c2ccccc12)C(=O)O; Phe(3,4,5-F3) = N[C@@H](Cc1cc(F)c(F)c(F)c1)C(=O)O; Trp(1-Me) = Cn1cc(C[C@H](N)C(=O)O)c2ccccc21; NMePhe(4-F) = CN[C@@H](Cc1ccc(F)cc1)C(=O)O; Morpholine(3S-CO) = O=C(O)[C@@H]1COCCN1; Phe(4-F) = N[C@@H](Cc1ccc(F)cc1)C(=O)O; d(cisHyp) = O=C(O)[C@H]1C[C@@H](O)CN1; Hyp = O=C(O)[C@@H]1C[C@@H](O)CN1; NMeF = CN[C@@H](Cc1ccccc1)C(=O)O; dPip(4-aza) = O=C(O)[C@H]1CNCCN1; NMeNle = CCCC[C@H](NC)C(=O)O; NMeV = CN[C@H](C(=O)O)C(C)C; Pip = O=C(O)[C@@H]1CCCCN1; dPip = O=C(O)[C@H]1CCCCN1; hSer = N[C@@H](CCO)C(=O)O; NMeA = CN[C@@H](C)C(=O)O; Orn = NCCC[C@H](N)C(=O)O; dNMeA = CN[C@H](C)C(=O)O; dThz = O=C(O)[C@H]1CSCN1; Dab = NCC[C@H](N)C(=O)O; Dap = NC[C@H](N)C(=O)O; ξC = NC(CS)C(=O)O
target: T1, Human PD-L1/PD-1 (Homo sapiens, UniProt Q9NZQ7); assay: HTRF Human PD-L1/PD-1 binding assay (PD-1-Ig/PD-L1-His); details: PD-L1-His 10 nM, PD-1-Ig 20 nM; class symbol; read-out: HTRF Human PD-L1/PD-1 Binding Assay IC50 Range
T1 construct: TVMV protease cleavage site (C); made in house; host or cells: HEK293T cells
Procedure, shortened: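 Truncated Fc-fused human PD-1 (aa 25-167) at 20 nM and His-tagged PD-L1 (aa 18-239) at 10 nM final are used, with peptides preincubated 15 min with PD-L1. Detection uses europium-cryptate anti-Ig and APC anti-His antibodies; 665/620 nm ratio.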

T1 sequence (Q9NZQ7 with tags, fused parts or gaps): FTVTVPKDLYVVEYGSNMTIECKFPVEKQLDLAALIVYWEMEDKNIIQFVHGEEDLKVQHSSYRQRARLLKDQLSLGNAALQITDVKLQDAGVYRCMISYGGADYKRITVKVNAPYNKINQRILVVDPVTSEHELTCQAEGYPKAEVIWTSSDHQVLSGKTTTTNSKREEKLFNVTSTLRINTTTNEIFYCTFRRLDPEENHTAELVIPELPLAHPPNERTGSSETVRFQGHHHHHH

pIC50	SMILES
8.00 to 9.00	CCCC[C@H]1C(=O)N(C)[C@@H](CCCC)C(=O)N[C@@H](C)C(=O)N[C@H](C(=O)NCC(N)=O)CSCC(=O)N[C@@H](Cc2ccc(O)cc2)C(=O)N2CCOC[C@H]2C(=O)N[C@@H](CC(=O)O)C(=O)N2CCC[C@H]2C(=O)N[C@@H](Cc2c[nH]cn2)C(=O)N[C@@H](CC(C)C)C(=O)N2C[C@H](O)C[C@H]2C(=O)N[C@@H](Cc2c[nH]c3ccccc23)C(=O)N[C@@H](CO)C(=O)N[C@@H](Cc2c[nH]c3ccccc23)C(=O)N1C [Example 1525]
8.00 to 9.00	CCCC[C@H]1C(=O)N(C)[C@@H](CCCC)C(=O)N[C@@H](CN)C(=O)N[C@H](C(=O)NCC(N)=O)CSCC(=O)N[C@@H](Cc2ccc(O)cc2)C(=O)N(C)[C@@H](C)C(=O)N[C@@H](CC(=O)O)C(=O)N2CCC[C@H]2C(=O)N[C@@H](CN)C(=O)N[C@@H](CCC(N)=O)C(=O)N2C[C@H](O)C[C@H]2C(=O)N[C@@H](Cc2c[nH]c3ccccc23)C(=O)N[C@@H](CO)C(=O)N[C@@H](Cc2cn(CC(=O)O)c3ccccc23)C(=O)N1C [Example 5226] ({CH2CO}-Y[NMeA]DP[Dap]Q[Hyp]WS[Trp(1-CH2COOH)][NMeNle][NMeNle][Dap]CG-NH2; thioether N-14)
8.00 to 9.00	CCCC[C@H]1C(=O)N2C[C@H](O)C[C@@H]2C(=O)N[C@@H](CC(=O)O)C(=O)N[C@@H](C(C)C)C(=O)N(C)[C@@H](Cc2ccccc2)C(=O)N[C@@H](CCC(=O)O)C(=O)N2C[C@H](O)C[C@@H]2C(=O)N[C@@H](Cc2c[nH]c3ccccc23)C(=O)N[C@@H](Cc2ccc(O)cc2)C(=O)N[C@@H](CCCN)C(=O)N[C@H](C(=O)NCC(N)=O)CSCC(=O)N[C@@H](Cc2cc(F)c(F)c(F)c2)C(=O)N(C)[C@@H](Cc2ccc(F)cc2)C(=O)N1C [Example 10612] ({CH2CO}-[Phe(3,4,5-F3)][NMePhe(4-F)][NMeNle][d(cisHyp)]DV[NMeF]E[d(cisHyp)]WY[Orn]CG-NH2; thioether N-13)
8.00 to 9.00	CCCC[C@H]1C(=O)N2C[C@H](O)C[C@@H]2C(=O)N[C@@H](CC(=O)O)C(=O)N[C@@H](C(C)C)C(=O)N(C)[C@@H](Cc2ccccc2)C(=O)N[C@@H](CCC(=O)O)C(=O)N2CCNC[C@@H]2C(=O)N[C@@H](Cc2c[nH]c3ccccc23)C(=O)N[C@@H](Cc2ccc(O)cc2)C(=O)N[C@@H](CCO)C(=O)N[C@H](C(=O)NCC(N)=O)CSCC(=O)N[C@@H](Cc2cc(F)c(F)c(F)c2)C(=O)N(C)[C@@H](Cc2ccccc2)C(=O)N1C [Example 10165] ({CH2CO}-[Phe(3,4,5-F3)][NMeF][NMeNle][d(cisHyp)]DV[NMeF]E[dPip(4-aza)]WY[hSer]CG-NH2; thioether N-13)
8.00 to 9.00	CCCC[C@H]1C(=O)N(C)[C@@H](CCCC)C(=O)N[C@@H](C)C(=O)N[C@H](C(=O)NCC(N)=O)CSCC(=O)N[C@@H](Cc2ccc(O)cc2)C(=O)N2CCOC[C@H]2C(=O)N[C@@H](CC(=O)O)C(=O)N2CCC[C@H]2C(=O)N[C@@H](Cc2cnc[nH]2)C(=O)N[C@@H](CCC(N)=O)C(=O)N2C[C@H](O)C[C@H]2C(=O)N[C@@H](Cc2c[nH]c3ccccc23)C(=O)N[C@@H](CO)C(=O)N[C@@H](Cc2c[nH]c3ccccc23)C(=O)N1C [Example 1514] ({CH2CO}-Y[Morpholine(3S-CO)]DPHQ[Hyp]WSW[NMeNle][NMeNle]ACG-NH2; thioether N-14)
8.00 to 9.00	CCCC[C@H]1C(=O)N(C)[C@@H](CCCC)C(=O)N[C@@H](CCCN)C(=O)N[C@H](C(=O)NCC(N)=O)CSCC(=O)N[C@@H](Cc2ccc(OC)cc2)C(=O)N(C)[C@@H](C)C(=O)N[C@@H](CCN)C(=O)N2CCC[C@H]2C(=O)N[C@@H](Cc2cnc[nH]2)C(=O)N[C@@H](CCCCN)C(=O)N2C[C@H](O)C[C@H]2C(=O)N[C@@H](Cc2c[nH]c3ccccc23)C(=O)N[C@@H](CCN)C(=O)N[C@@H](Cc2c[nH]c3ccccc23)C(=O)N1C [Example 7095] ({CH2CO}-Y(Me)[NMeA][Dab]PHK[Hyp]W[Dab]W[NMeNle][NMeNle][Orn]CG-NH2; thioether N-14)
7.00 to 8.00	CCCC[C@H]1C(=O)N2CCC[C@@H]2C(=O)N[C@@H](CN)C(=O)N[C@@H](C(C)C)C(=O)N(C)[C@@H](Cc2ccccc2)C(=O)N[C@@H](Cc2ccc(O)cc2)C(=O)N2CSC[C@@H]2C(=O)N[C@@H](Cc2c[nH]c3ccccc23)C(=O)N[C@@H](Cc2ccc(O)cc2)C(=O)N[C@@H](CC(C)C)C(=O)N[C@H](C(=O)NCC(N)=O)CSCC(=O)N[C@@H](Cc2ccccc2)C(=O)N(C)[C@@H](Cc2ccccc2)C(=O)N1C [Example 10071] ({CH2CO}-F[NMeF][NMeNle][dP][Dap]V[NMeF]Y[dThz]WYLCG-NH2; thioether N-13)

The remaining lines, values behind:

SMILES	pIC50
CCCC[C@H]1C(=O)N(C)[C@@H](CCCC)C(=O)N[C@@H](CCC(=O)O)C(=O)N[C@H](C(=O)NCC(N)=O)CSCC(=O)N[C@@H](Cc2ccc(O)cc2)C(=O)N(C)[C@@H](C)C(=O)N[C@@H](CC(N)=O)C(=O)N2CCC[C@H]2C(=O)N[C@@H](Cc2c[nH]cn2)C(=O)N[C@@H](CCC(=O)O)C(=O)N2C[C@H](O)C[C@H]2C(=O)N[C@@H](Cc2c[nH]c3ccccc23)C(=O)N[C@@H](CO)C(=O)N[C@@H](Cc2c[nH]c3ccccc23)C(=O)N1C [Example 5150] ({CH2CO}-Y[NMeA]NPHE[Hyp]WSW[NMeNle][NMeNle]ECG-NH2; thioether N-14)	8.00 to 9.00
CCCC[C@H]1C(=O)N(C)[C@@H](CCCC)C(=O)N[C@@H](CCCNC(=N)N)C(=O)NC(C(=O)NCC(N)=O)CSCC(=O)N[C@@H](Cc2ccc(O)cc2)C(=O)N(C)[C@@H](C)C(=O)N[C@@H](CC(N)=O)C(=O)N2CCC[C@H]2C(=O)N[C@@H](CCO)C(=O)N[C@@H](CO)C(=O)N2CCC[C@H]2C(=O)N[C@@H](Cc2c[nH]c3ccccc23)C(=O)N[C@@H](CO)C(=O)N[C@@H](Cc2c[nH]c3ccccc23)C(=O)N1C (stereo partly drawn) [Example 10034] ({CH2CO}-Y[NMeA]NP[hSer]SPWSW[NMeNle][NMeNle]R[ξC]G-NH2; thioether N-14)	8.00 to 9.00
CCCC[C@H]1C(=O)N(C)[C@@H](CCCC)C(=O)N[C@@H](CC(C)C)C(=O)N[C@H](C(=O)NCC(N)=O)CSCC(=O)N[C@@H](Cc2ccc(O)cc2)C(=O)N2CCCC[C@H]2C(=O)N[C@@H](CC(N)=O)C(=O)N2CCC[C@H]2C(=O)N[C@@H](CN)C(=O)N[C@@H](CCC(=O)O)C(=O)N2C[C@H](O)C[C@H]2C(=O)N[C@@H](Cc2c[nH]c3ccccc23)C(=O)N[C@@H](CCN)C(=O)N[C@@H](Cc2cn(CC(=O)O)c3ccccc23)C(=O)N1C [Example 1299] ({CH2CO}-Y[Pip]NP[Dap]E[Hyp]W[Dab][Trp(1-CH2COOH)][NMeNle][NMeNle]LCG-NH2; thioether N-14)	8.00 to 9.00
CCCC[C@H]1C(=O)N2CCC[C@@H]2C(=O)N[C@@H](CC(=O)O)C(=O)N[C@@H](C(C)C)C(=O)N(C)[C@@H](C(C)C)C(=O)N[C@@H](CCC(N)=O)C(=O)N2CCCC[C@@H]2C(=O)N[C@@H](Cc2c[nH]c3ccccc23)C(=O)N[C@@H](Cc2ccc(O)cc2)C(=O)N[C@@H](CCCN)C(=O)N[C@H](C(=O)NCC(N)=O)CSCC(=O)N[C@@H](Cc2ccc(F)cc2)C(=O)N(C)[C@@H](Cc2ccccc2)C(=O)N1C [Example 9248] ({CH2CO}-[Phe(4-F)][NMeF][NMeNle][dP]DV[NMeV]Q[dPip]WY[Orn]CG-NH2; thioether N-13)	5.00 to 6.00
CCCC[C@H]1C(=O)N(C)[C@@H](CCCC)C(=O)N[C@@H](CCCN)C(=O)N[C@H](C(=O)NCC(N)=O)CSCC(=O)N[C@@H](Cc2ccc(O)cc2)C(=O)N2CCC(C)(C)[C@H]2C(=O)N[C@@H](CC(N)=O)C(=O)N2CCCC2C(=O)N[C@@H](Cc2cnc[nH]2)C(=O)N[C@@H](CC(C)C)C(=O)N2C[C@H](O)C[C@H]2C(=O)N[C@@H](Cc2c[nH]c3ccccc23)C(=O)N[C@@H](CO)C(=O)N[C@@H](Cc2c[nH]c3ccccc23)C(=O)N1C (stereo partly drawn) [Example 1240]	5.00 to 6.00
CC(C)[C@@H]1NC(=O)[C@H](CC(N)=O)NC(=O)[C@@H](C)N(C)C(=O)[C@H](C)N(C)C(=O)[C@H](Cc2ccccc2)N(C)C(=O)[C@H](Cc2cc(F)c(F)c(F)c2)NC(=O)CSC[C@@H](C(=O)NCC(N)=O)NC(=O)[C@H](CCCN)NC(=O)[C@H](Cc2ccc(O)cc2)NC(=O)[C@H](Cc2c[nH]c3ccccc23)NC(=O)[C@@H](C)N(C)C(=O)[C@H](Cc2ccc(O)cc2)NC(=O)[C@H](Cc2ccccc2)N(C)C1=O [Example 9195] ({CH2CO}-[Phe(3,4,5-F3)][NMeF][NMeA][dNMeA]NV[NMeF]Y[dNMeA]WY[Orn]CG-NH2; thioether N-13)	8.00 to 9.00
CCCC[C@H]1C(=O)N(C)[C@@H](CCCC)C(=O)N[C@@H](CC(C)C)C(=O)N[C@H](C(=O)NCC(N)=O)CSCC(=O)N[C@@H](Cc2ccc(O)cc2)C(=O)N(C)[C@@H](C)C(=O)N[C@@H](CC(N)=O)C(=O)N2CCC[C@H]2C(=O)N[C@@H](CO)C(=O)N[C@@H](CCC(=O)O)C(=O)N2C[C@H](O)C[C@H]2C(=O)N[C@@H](Cc2c[nH]c3ccccc23)C(=O)N[C@@H](CCN)C(=O)N[C@@H](Cc2cn(CC(=O)O)c3ccccc23)C(=O)N1C [Example 6266] ({CH2CO}-Y[NMeA]NPSE[Hyp]W[Dab][Trp(1-CH2COOH)][NMeNle][NMeNle]LCG-NH2; thioether N-14)	7.00 to 8.00
CCCC[C@H]1C(=O)N(C)[C@@H](CCCC)C(=O)N[C@@H](CC(C)C)C(=O)N[C@H](C(=O)NCC(N)=O)CSCC(=O)N[C@@H](Cc2ccc(O)cc2)C(=O)N(C)[C@@H](C)C(=O)N[C@@H](CC(=O)O)C(=O)N2CCC[C@H]2C(=O)N[C@@H](Cc2cnc[nH]2)C(=O)N[C@@H](CCC(N)=O)C(=O)N2C[C@H](O)C[C@H]2C(=O)N[C@@H](Cc2c[nH]c3ccccc23)C(=O)N[C@@H](CO)C(=O)N[C@@H](Cc2cn(C)c3ccccc23)C(=O)N1C [Example 1503] ({CH2CO}-Y[NMeA]DPHQ[Hyp]WS[Trp(1-Me)][NMeNle][NMeNle]LCG-NH2; thioether N-14)	8.00 to 9.00
